Consider 28 compounds from ChEMBL document CHEMBL6134817, “Novel gut-restricted bivalent agonists targeting mucosal 5-HT4R: Design, synthesis, and biological evaluation” (Eur J Med Chem, 2025).

Each structure is given as a SMILES string. pEC50: −log10 of the molar value. Where only a bound is given, the exact number is not on record here.

Assay [1] has as its target T1, 5-hydroxytryptamine receptor 4 (Homo sapiens, UniProt Q13639). Nature of the assay: Agonist activity at full-length human 5-HT4R stably expressed in HEK293 cells assessed as increase in intracellular cAMP level incubated for 30 mins under dark condition by reporter gene assay relative to control. The format is functional, cell-based. Background: Changes in cAMP serve as a functional read-out for many G protein-coupled receptors.

Assay [2] deals with T1, 5-hydroxytryptamine receptor 4. Nature of the assay: Agonist activity at full-length human 5-HT4R stably expressed in HEK293 cells assessed as increase in intracellular cAMP level incubated for 30 mins under dark condition by reporter gene assay. The format is functional, cell-based.

As a reminder, the pEC50 is the negative decadic logarithm of the EC50, by convention in mol/L.

T1 sequence (Q13639 whole entry): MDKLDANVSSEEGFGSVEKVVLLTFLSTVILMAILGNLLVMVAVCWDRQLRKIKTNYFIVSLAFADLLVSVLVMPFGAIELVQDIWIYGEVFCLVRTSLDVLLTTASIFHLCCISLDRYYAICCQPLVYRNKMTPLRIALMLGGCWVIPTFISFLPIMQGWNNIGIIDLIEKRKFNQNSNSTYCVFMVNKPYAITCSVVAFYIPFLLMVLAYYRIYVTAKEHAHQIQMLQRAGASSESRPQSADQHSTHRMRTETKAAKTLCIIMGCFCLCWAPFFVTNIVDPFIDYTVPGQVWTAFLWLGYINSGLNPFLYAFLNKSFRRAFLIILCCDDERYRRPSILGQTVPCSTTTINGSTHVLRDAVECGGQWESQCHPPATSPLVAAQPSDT

As for `Nc1c(Cl)cc(C(=O)NC2CCN(CCC(=O)NCCOCCNC(=O)NCCOCCNC(=O)CCN3CCC(NC(=O)c4cc(Cl)c(N)c5c4OCC5)CC3)CC2)c2c1CCO2`, the Efficacy in assay [1] (filed as agonist) was determined as 123%. In addition, in assay [2], the pEC50 is 9.07.

Take `COc1cc(N)c(Cl)cc1C(=O)NC1CCN(CCC(=O)NCCOCCOCCNC(=O)NCCCCNC(=O)NCCOCCOCCNC(=O)CCN2CCC(NC(=O)c3cc(Cl)c(N)cc3OC)CC2)CC1`: the Efficacy in assay [1] (filed as agonist) came out at 102%. For the same compound, the pEC50 in assay [2] was 7.36.

On to `Nc1c(Cl)cc(C(=O)NC2CCN(CCC(=O)NCCOCCOCCNC(=O)N3CC4(C3)CN(C(=O)NCCOCCOCCNC(=O)CCN3CCC(NC(=O)c5cc(Cl)c(N)c6c5OCC6)CC3)C4)CC2)c2c1CCO2`, for which, in assay [1] (filed as agonist), the Efficacy is 122%. Moreover, the pEC50 in assay [2] is 7.94.

Turning to `Nc1c(Cl)cc(C(=O)NC2CCN(CCC(=O)NCCOCCOCCNC(=O)NCCOCCOCCNC(=O)CCN3CCC(NC(=O)c4cc(Cl)c(N)c5c4OCC5)CC3)CC2)c2c1CCO2`, the Efficacy in assay [1] (filed as agonist) is 103%. In addition, the negative logarithm of the EC50 (pEC50) in assay [2] was 9.02.

Consider `Nc1c(Cl)cc(C(=O)NC2CCN(CCC(=O)NCCOCCOCCNC(=O)Nc3ccc(NC(=O)NCCOCCOCCNC(=O)CCN4CCC(NC(=O)c5cc(Cl)c(N)c6c5OCC6)CC4)cc3)CC2)c2c1CCO2`, for which the Efficacy in assay [1] (filed as agonist) was found to be 89.8%. Besides, the pEC50 in assay [2] was 7.98.

For `Nc1c(Cl)cc(C(=O)NC2CCN(CCC(=O)NCCOCCOCCNC(=O)N3CCN(C(=O)NCCOCCOCCNC(=O)CCN4CCC(NC(=O)c5cc(Cl)c(N)c6c5OCC6)CC4)CC3)CC2)c2c1CCO2`, the Efficacy in assay [1] (filed as agonist) was 127%. For the same compound, in assay [2], the pEC50 was 8.15.

With `Nc1c(Cl)cc(C(=O)NC2CCN(CCC(=O)NCCOCCOCCNC(=O)N[C@H]3CC[C@H](NC(=O)NCCOCCOCCNC(=O)CCN4CCC(NC(=O)c5cc(Cl)c(N)c6c5OCC6)CC4)CC3)CC2)c2c1CCO2`, the Efficacy in assay [1] (filed as agonist) is 122%. For the same compound, the pEC50 in assay [2] was 8.17.

Regarding `Nc1c(Cl)cc(C(=O)NCC2CCN(CCCCCC(=O)NCCOCCOCNC(=O)N[C@H]3CC[C@H](NC(=O)NCOCCOCCNC(=O)CCCCCN4CCC(CNC(=O)c5cc(Cl)c(N)c6c5OCC6)CC4)CC3)CC2)c2c1CCO2`, the Efficacy in assay [1] (filed as agonist) was 104%. Further, the pEC50 in assay [2] is 8.86.

Regarding `CC(C)(C(=O)NCCOCCOCCNC(=O)CCN1CCC(NC(=O)c2cc(Cl)c(N)c3c2OCC3)CC1)C(=O)NCCOCCOCCNC(=O)CCN1CCC(NC(=O)c2cc(Cl)c(N)c3c2OCC3)CC1`, the Efficacy in assay [1] (filed as agonist) turned out to be 129%. Also, the pEC50 in assay [2] was 8.26.

`Nc1c(Cl)cc(C(=O)NC2CCN(CCC(=O)NCCOCCOCCNC(=O)C3(C(=O)NCCOCCOCCNC(=O)CCN4CCC(NC(=O)c5cc(Cl)c(N)c6c5OCC6)CC4)CCCC3)CC2)c2c1CCO2`: the Efficacy in assay [1] (filed as agonist) was determined as 130%. Moreover, the pEC50 in assay [2] was 8.52.

As to `Nc1c(Cl)cc(C(=O)NC2CCN(CCNC(=O)CCOCCOCCNC(=O)NCCCCNC(=O)NCCOCCOCCNC(=O)CCN3CCC(NC(=O)c4cc(Cl)c(N)c5c4OCC5)CC3)CC2)c2c1CCO2`, the Efficacy in assay [1] (filed as agonist) turned out to be 89.7%. The pEC50 in assay [2] is 8.29.

As for `O=C(CCN1CCC(COc2noc3c(O[C@@H]4CCOC4)cccc23)CC1)NCCOCCOCCNC(=O)NCCCCNC(=O)NCCOCCOCCNC(=O)CCN1CCC(COc2noc3cccc(O[C@@H]4CCOC4)c23)CC1`, the Efficacy in assay [1] was found to be 0.16%. In assay [2], the pEC50 is less than 5.00.

For the compound `Nc1c(Cl)cc(C(=O)NC2CCN(CCC(=O)NCCOCCNC(=O)NCCCCNC(=O)NCCOCCNC(=O)CCN3CCC(NC(=O)c4cc(Cl)c(N)c5c4OCC5)CC3)CC2)c2c1CCO2`, in assay [1] (filed as agonist), the Efficacy stood at 119%. For the same compound, the pEC50 in assay [2] was 8.43.

For `Nc1c(Cl)cc(C(=O)NC2CCN(CCC(=O)NCCOCCOCCNC(=O)N[C@H]3C[C@H](NC(=O)NCCOCCOCCNC(=O)CCN4CCC(NC(=O)c5cc(Cl)c(N)c6c5OCC6)CC4)C3)CC2)c2c1CCO2`, the Efficacy in assay [1] (filed as agonist) is 115%. The negative logarithm of the EC50 (pEC50) in assay [2] is 8.58.

As for `Nc1c(Cl)cc(C(=O)NC2CCN(CCC(=O)NCCOCCOCCNC(=O)COCC(=O)NCCOCCOCCNC(=O)CCN3CCC(NC(=O)c4cc(Cl)c(N)c5c4OCC5)CC3)CC2)c2c1CCO2`, in assay [1] (filed as agonist), the Efficacy came out at 104%. The negative-log EC50 (pEC50) in assay [2] is 8.31.

`Nc1c(Cl)cc(C(=O)NC2CCN(CCNCCOCCOCCNC(=O)N[C@H]3CCCC[C@@H]3NC(=O)NCCOCCOCCNC(=O)CCN3CCC(NC(=O)c4cc(Cl)c(N)c5c4OCC5)CC3)CC2)c2c1CCO2`: the Efficacy in assay [1] (filed as agonist) was found to be 85.6%. Further, in assay [2], the negative logarithm of the EC50 (pEC50) was 8.51.

As for `Nc1c(Cl)cc(C(=O)NC2CCN(CCCCCC(=O)NCCOCCOCCNC(=O)NCCCCNC(=O)NCCOCCOCCNC(=O)CCCCCN3CCC(NC(=O)c4cc(Cl)c(N)c5c4OCC5)CC3)CC2)c2c1CCO2`, the Efficacy in assay [1] (filed as agonist) was found to be 106%. Moreover, the negative-log EC50 (pEC50) in assay [2] was 8.42.

As to `Nc1c(Cl)cc(C(=O)NC2CCN(CCC(=O)NCCOCCOCCOCCNC(=O)NCCOCCOCCOCCNC(=O)CCN3CCC(NC(=O)c4cc(Cl)c(N)c5c4OCC5)CC3)CC2)c2c1CCO2`, the Efficacy in assay [1] (filed as agonist) is 119%. Besides, the pEC50 in assay [2] is 8.97.

As to `Nc1c(Cl)cc(C(=O)NC2CCN(CCCC(=O)NCCOCCOCCNC(=O)NCCCCNC(=O)NCCOCCOCCNC(=O)CCCN3CCC(NC(=O)c4cc(Cl)c(N)c5c4OCC5)CC3)CC2)c2c1CCO2`, the Efficacy in assay [1] (filed as agonist) turned out to be 92.4%. Besides, the negative-log EC50 (pEC50) in assay [2] is 8.63.

For the compound `Nc1c(Cl)cc(C(=O)NC2CCN(CCCCC(=O)NCCOCCOCCNC(=O)NCCCCNC(=O)NCCOCCOCCNC(=O)CCCCN3CCC(NC(=O)c4cc(Cl)c(N)c5c4OCC5)CC3)CC2)c2c1CCO2`, the Efficacy in assay [1] (filed as agonist) was found to be 102%. Further, the negative logarithm of the EC50 (pEC50) in assay [2] was 8.52.

Consider `Nc1c(Cl)cc(C(=O)NC2CCN(CCC(=O)NCCCCCCCCNC(=O)NCCCCNC(=O)NCCCCCCCCNC(=O)CCN3CCC(NC(=O)c4cc(Cl)c(N)c5c4OCC5)CC3)CC2)c2c1CCO2`, for which the Efficacy in assay [1] (filed as agonist) was 125%. For the same compound, the negative-log EC50 (pEC50) in assay [2] was 6.13.

Regarding `CC(C)n1nc(-c2nnc(C3CCN(CCC(=O)NCCOCCOCCNC(=O)NCCCCNC(=O)NCCOCCOCCNC(=O)CCN4CCC(c5nnc(-c6nn(C(C)C)c7ccccc67)o5)CC4)CC3)o2)c2ccccc21`, the Efficacy in assay [1] (filed as agonist) is 47.8%. The pEC50 in assay [2] was less than 5.00.

`Nc1c(Cl)cc(C(=O)NC2CCN(CCC(=O)NCCCCCCCCNC(=O)NCCNC(=O)NCCCCCCCCNC(=O)CCN3CCC(NC(=O)c4cc(Cl)c(N)c5c4OCC5)CC3)CC2)c2c1CCO2`: the Efficacy in assay [1] (filed as agonist) is 125%. Also, the pEC50 in assay [2] is 8.23.

For `Nc1c(Cl)cc(C(=O)NC2CCN(CCC(=O)NCCOCCOCCNC(=O)c3ccc(C(=O)NCCOCCOCCNC(=O)CCN4CCC(NC(=O)c5cc(Cl)c(N)c6c5OCC6)CC4)cc3)CC2)c2c1CCO2`, the Efficacy in assay [1] (filed as agonist) came to 110%. Besides, in assay [2], the negative-log EC50 (pEC50) is 8.25.

With `Nc1c(Cl)cc(C(=O)NC2CCN(CCC(=O)NCCOCCOCCNC(=O)C3(C(=O)NCCOCCOCCNC(=O)CCN4CCC(NC(=O)c5cc(Cl)c(N)c6c5OCC6)CC4)CCCCC3)CC2)c2c1CCO2`, in assay [1] (filed as agonist), the Efficacy is 116%. Further, in assay [2], the negative logarithm of the EC50 (pEC50) was 8.52.

Consider `Nc1c(Cl)cc(C(=O)NC2CCN(CCC(=O)NCCOCCOCCNC(=O)C3(C(=O)NCCOCCOCCNC(=O)CCN4CCC(NC(=O)c5cc(Cl)c(N)c6c5OCC6)CC4)CC3)CC2)c2c1CCO2`, for which, in assay [1] (filed as agonist), the Efficacy was determined as 128%. The negative logarithm of the EC50 (pEC50) in assay [2] was 8.60.

As for `Nc1c(Cl)cc(C(=O)NCCC2CCN(CCC(=O)NCCOCCOCCNC(=O)NCCCCNC(=O)NCCOCCOCCNC(=O)CCN3CCC(CCNC(=O)c4cc(Cl)c(N)c5c4OCC5)CC3)CC2)c2c1CCO2`, the Efficacy in assay [1] (filed as agonist) came to 102%. In addition, in assay [2], the negative logarithm of the EC50 (pEC50) is 7.09.

As to `Nc1c(Cl)cc(C(=O)NC2CCN(CCC(=O)NCCOCCOCCNC(=O)C3(C(=O)NCCOCCOCCNC(=O)CCN4CCC(NC(=O)c5cc(Cl)c(N)c6c5OCC6)CC4)CCC3)CC2)c2c1CCO2`, the Efficacy in assay [1] (filed as agonist) was 122%. Further, the pEC50 in assay [2] is 8.09.
